# Experiments:
# morningglory = experiment: Test C pre-/postemergence herbicide test; format: in vivo, Ipomoea coccinea; design: key to Plant response rating, Morningglory: 0 = no effect, 100 = complete control; conditions: for Plant response rating, Morningglory: visual, 12 to 14 days
# Summary of the method: (§1)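 Seeds were planted and sprayed preemergence with test chemicals in a non-phytotoxic solvent mixture containing surfactant; postemergence treatments went onto plants 2 to 18 cm tall (1- to 4-leaf stage). After 12 to 14 days in a greenhouse, injury was rated visually against untreated controls on a 0–100 scale.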
# barnyardgrass = experiment: Test C flooded paddy test; format: in vivo, Echinochloa crus-galli
# Summary of the method: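 Scoring by eye, 12–14 days post-treatment, greenhouse-held plants vs. controls; 0 no effect, 100 complete control. Sprayed at 1–4 leaves (2–18 cm); paddy barnyardgrass at 2 leaves, flooded.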
# eastern black nightshade = experiment: Test C pre-/postemergence herbicide test; format: in vivo, Solanum ptycanthum; conditions: for Plant response rating, Nightshade: visual, 12 to 14 days
# Summary of the method: as §1
# large crabgrass [1] = experiment: Test C pre-/postemergence herbicide test; format: in vivo, Digitaria sanguinalis; conditions: for Plant response rating, Crabgrass, Large: visual, 12 to 14 days
# Summary of the method: as §1
# large crabgrass [2] = experiment: Test B pre-/postemergence herbicide test; format: in vivo, Digitaria sanguinalis
# Summary of the method: (§2)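 Flooded paddy rice and barnyardgrass were treated at the 2-leaf stage; upland plantings received compound either on sown seed or on 1- to 4-leaf seedlings. All were kept 13–15 days in a greenhouse and scored visually, 0–100, relative to untreated plants.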
# yellow nutsedge = experiment: Test C pre-/postemergence herbicide test; format: in vivo, Cyperus esculentus; conditions: for Plant response rating, Nutsedge, Yellow: visual, 12 to 14 days
# Summary of the method: as §1
# cocklebur = experiment: Test C pre-/postemergence herbicide test; format: in vivo, Xanthium strumarium; conditions: for Plant response rating, Cocklebur: visual, 12 to 14 days
# Summary of the method: as §1
# rice = experiment: Test B pre-/postemergence herbicide test; format: in vivo, Oryza sativa; conditions: preemergence, 125 g ai/ha; 0 to 100 scale, 0 is no effect, 100 is complete control
# Summary of the method: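 Evaluation is visual, comparing treated with control plants on a scale where 0 means no effect and 100 means full control. Treatments were preemergence, or postemergence on seedlings 2–18 cm tall, and held 13–15 days in the greenhouse.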
# johnsongrass = experiment: Test C pre-/postemergence herbicide test; format: in vivo, Sorghum halepense; conditions: for Plant response rating, Johnsongrass: visual, 12 to 14 days
# Summary of the method: as §1
# Surinam grass = experiment: Test B pre-/postemergence herbicide test; format: in vivo, Urochloa decumbens
# Summary of the method: as §2
# [3] = 125 g ai/ha, scale 0 (no effect) to 100 (complete control), preemergence
# [4] = 250 g ai/ha, scale 0 to 100 (0 no effect, 100 complete control), preemergence
# [5] = Preemergence, 500 g ai/ha, scale 0 to 100, 0 no effect, 100 complete control
# [6] = Postemergence, 500 g ai/ha, visual rating after 13 to 15 days, scale 0 (no effect) to 100 (complete control)
# [7] = postemergence, 125 g ai/ha, visual rating, scale 0 (no effect) to 100 (complete control)
# [8] = preemergence, 125 g ai/ha, 0 to 100 scale, 0 is no effect, 100 is complete control
compound,measurement,setting,value
CCN1CCc2c(NC(=O)c3cc(C(C)(C)C)nn3CC)cccc2C1=O [Compound 63],"Plant response rating (0 = no effect, 100 = complete control), Morningglory","morningglory; 62 g ai/ha, preemergence",0
same,"Plant response rating, Morningglory",morningglory; [3],40
same,"Plant response rating, Morningglory",morningglory; [4],40
same,Morningglory plant response rating,morningglory; [5],40
same,Barnyardgrass plant response rating,"barnyardgrass; 62 g ai/ha, scale 0 to 100 (0 no effect, 100 complete control)",0
same,Barnyardgrass plant response rating,"barnyardgrass; 125 g ai/ha, scale of 0 to 100, 0 is no effect, 100 is complete control",0
same,Barnyardgrass plant response rating,"barnyardgrass; 250 g ai/ha, scale of 0 to 100, 0 is no effect, 100 is complete control",20
same,"Plant response rating, Barnyardgrass","barnyardgrass; 500 g ai/ha, visual rating after 12 to 14 days, scale 0 to 100 (0 no effect, 100 complete control)",50
same,"Plant response rating (0 = no effect, 100 = complete control), Nightshade","eastern black nightshade; 62 g ai/ha, preemergence",70
same,"Plant response rating, Nightshade",eastern black nightshade; [3],90
same,"Plant response rating, Nightshade",eastern black nightshade; [4],95
same,Nightshade plant response rating,eastern black nightshade; [5],95
same,"Plant response rating (0 = no effect, 100 = complete control), Crabgrass, Large","large crabgrass [1]; 62 g ai/ha, preemergence",10
same,"Plant response rating, Crabgrass, Large",large crabgrass [1]; [3],85
same,"Plant response rating, Crabgrass, Large",large crabgrass [1]; [4],90
same,"Crabgrass, Large plant response rating",large crabgrass [1]; [5],100
same,"Plant response rating, Crabgrass, Large",large crabgrass [2]; [6],20
same,"Crabgrass, Large plant response rating","large crabgrass [2]; Preemergence, 500 g ai/ha, scale 0 to 100",100
same,"Crabgrass, Large plant response rating",large crabgrass [2]; [7],10
same,"Plant response rating, Crabgrass, Large",large crabgrass [2]; [8],70
same,"Plant response rating (0 = no effect, 100 = complete control), Nutsedge, Yellow","yellow nutsedge; 62 g ai/ha, preemergence",0
same,"Plant response rating, Nutsedge, Yellow",yellow nutsedge; [3],0
same,"Plant response rating, Nutsedge, Yellow",yellow nutsedge; [4],0
same,"Nutsedge, Yellow plant response rating",yellow nutsedge; [5],40
same,"Plant response rating (0 = no effect, 100 = complete control), Cocklebur","cocklebur; 62 g ai/ha, preemergence",0
same,"Plant response rating, Cocklebur",cocklebur; [3],0
same,"Plant response rating, Cocklebur",cocklebur; [4],0
same,Cocklebur plant response rating,cocklebur; [5],0
same,"Plant response rating, Rice",rice,50
same,"Plant response rating (0 = no effect, 100 = complete control), Johnsongrass","johnsongrass; 62 g ai/ha, preemergence",30
same,"Plant response rating, Johnsongrass",johnsongrass; [3],60
same,"Plant response rating, Johnsongrass",johnsongrass; [4],75
same,Johnsongrass plant response rating,johnsongrass; [5],100
same,"Plant response rating, Surinam Grass",Surinam grass; [6],20
same,Surinam Grass plant response rating,Surinam grass; [7],10
same,"Plant response rating, Surinam Grass",Surinam grass; [8],20

# — patent publication US20060069132A1, “Azolecarboxamide herbicides” (priority 2004, published 2006)
